Test results: PubChem BioAssay AID1963834 (Molecular Pharmacology Branch, DTP, NCI, 2024)

Test system: 873145-292-R-J1-PDC complex spheroid viability
Assay: Anticancer human tumor 873145-292-R-J1-PDC patient-derived renal clear cell carcinoma cell line growth inhibition [POLQ]
Conditions: for IC50: curve of first compound; for viability, T/C: stronger effect = lower value; active = viability on the fitted dose curve at most 10% of control; inactive = the rest
Method in brief: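 PDC + HUVEC + MSC complex spheroids; POLQ inhibitors ± partner drugs; top conc. at/near clinical Cmax, else 10 microM (SN-38 1 microM), half-log dilutions; 37 degrees C, 5% CO2.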

[1] = second compound 0.0316 µM, first compound 0.0316 µM
[2] = second compound 0.0316 µM, first compound 0.1 µM
[3] = second compound 0.0316 µM, first compound 0.316 µM
[4] = second compound 0.0316 µM, first compound 1 µM
[5] = second compound 0.0316 µM, first compound 3.16 µM
[6] = second compound 0.0316 µM, first compound 10 µM
[7] = second compound 0.1 µM, first compound 0.0316 µM
[8] = second compound 0.1 µM, first compound 0.1 µM
[9] = second compound 0.1 µM, first compound 0.316 µM
[10] = second compound 0.1 µM, first compound 1 µM
[11] = second compound 0.1 µM, first compound 3.16 µM
[12] = second compound 0.1 µM, first compound 10 µM
[13] = second compound 0.316 µM, first compound 0.0316 µM
[14] = second compound 0.316 µM, first compound 0.1 µM
[15] = second compound 0.316 µM, first compound 0.316 µM
[16] = second compound 0.316 µM, first compound 1 µM
[17] = second compound 0.316 µM, first compound 3.16 µM
[18] = second compound 0.316 µM, first compound 10 µM
[19] = second compound 1 µM, first compound 0.0316 µM
[20] = second compound 1 µM, first compound 0.1 µM
[21] = second compound 1 µM, first compound 0.316 µM
[22] = second compound 1 µM, first compound 1 µM
[23] = second compound 1 µM, first compound 3.16 µM
[24] = second compound 1 µM, first compound 10 µM
[25] = second compound 3.16 µM, first compound 0.0316 µM
[26] = second compound 3.16 µM, first compound 0.1 µM
[27] = second compound 3.16 µM, first compound 0.316 µM
[28] = second compound 3.16 µM, first compound 1 µM
[29] = second compound 3.16 µM, first compound 3.16 µM
[30] = second compound 3.16 µM, first compound 10 µM
[31] = second compound 10 µM, first compound 0.0316 µM
[32] = second compound 10 µM, first compound 0.1 µM
[33] = second compound 10 µM, first compound 0.316 µM
[34] = second compound 10 µM, first compound 1 µM
[35] = second compound 10 µM, first compound 3.16 µM
[36] = second compound 10 µM, first compound 10 µM
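Also: spheroids exposed to compounds for 7 days before viability readout.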
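For viability, T/C in this document: luminescence signal used as surrogate for viable cell content; 100% = DMSO vehicle control viability.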

Nc1ccn(C2OC(CO)C(O)C2(F)F)c(=O)n1 (centres undefined) + Cc1cccc(N(C)C(=O)C2C(O)CCN2c2nc(C)cc(C(F)(F)F)c2C#N)c1
> 10 µM: IC50 (second compound 0.1 µM) | IC50 (second compound 1 µM) | IC50 (second compound 10 µM)
9.95 µM: IC50 (second compound 0.0316 µM)
inactive: viability, T/C [1] 67.6% | viability, T/C [2] 58.3% | viability, T/C [3] 51.4% | viability, T/C [4] 53.3% | viability, T/C [5] 53.5% | viability, T/C [6] 52.6% | viability, T/C [7] 82.3% | viability, T/C [8] 68.8% | viability, T/C [9] 51.8% | viability, T/C [10] 59.8% | viability, T/C [11] 55% | viability, T/C [12] 56.1% | viability, T/C [13] 62% | viability, T/C [14] 63.5% | viability, T/C [15] 54.6% | viability, T/C [16] 58.9% | viability, T/C [17] 54.9% | viability, T/C [18] 43.8% | viability, T/C [19] 66.9% | viability, T/C [20] 52.5% | viability, T/C [21] 52.3% | viability, T/C [22] 49.6% | viability, T/C [23] 53.1% | viability, T/C [24] 50.3% | viability, T/C [25] 72.3% | viability, T/C [26] 63.8% | viability, T/C [27] 55.4% | viability, T/C [28] 55.4% | viability, T/C [29] 56.1% | viability, T/C [30] 45.1% | viability, T/C [31] 69.2% | viability, T/C [32] 63.4% | viability, T/C [33] 62.9% | viability, T/C [34] 58.5% | viability, T/C [35] 59.7% | viability, T/C [36] 58.8%
5.41 µM: IC50 (second compound 3.16 µM)
4.94 µM: IC50 (second compound 0.316 µM)

O=C(c1cc(Cc2n[nH]c(=O)c3ccccc23)ccc1F)N1CCN(C(=O)C2CC2)CC1 + Cc1cccc(N(C)C(=O)C2C(O)CCN2c2nc(C)cc(C(F)(F)F)c2C#N)c1
inactive: viability, T/C [1] 104% | viability, T/C [2] 110% | viability, T/C [3] 87.7% | viability, T/C [4] 101% | viability, T/C [5] 102% | viability, T/C [6] 94.8% | viability, T/C [7] 103% | viability, T/C [8] 104% | viability, T/C [9] 90.4% | viability, T/C [10] 102% | viability, T/C [11] 99.9% | viability, T/C [12] 90.8% | viability, T/C [13] 94.4% | viability, T/C [14] 92.1% | viability, T/C [15] 103% | viability, T/C [16] 88.4% | viability, T/C [17] 106% | viability, T/C [18] 92.2% | viability, T/C [19] 103% | viability, T/C [20] 89% | viability, T/C [21] 87.8% | viability, T/C [22] 106% | viability, T/C [23] 94.3% | viability, T/C [24] 87.7% | viability, T/C [25] 92.9% | viability, T/C [26] 93.2% | viability, T/C [27] 111% | viability, T/C [28] 103% | viability, T/C [29] 96.8% | viability, T/C [30] 98.9% | viability, T/C [31] 100% | viability, T/C [32] 93.3% | viability, T/C [33] 91% | viability, T/C [34] 102% | viability, T/C [35] 102% | viability, T/C [36] 107%
> 10 µM: IC50 (second compound 0.0316 µM) | IC50 (second compound 0.1 µM) | IC50 (second compound 0.316 µM) | IC50 (second compound 1 µM) | IC50 (second compound 3.16 µM) | IC50 (second compound 10 µM)
